Tests used:
M13 CaM-BP [1] = assay: BLA-CaM chimera activity, nitrocefin assay with or without CaM-BP; assay type: biochemical
Source text: FIG. 5. Construction of β-lactamase single insert CaM chimeras (BLA-CaM). (A) A schematic showing th β-lactamase (BLA) assay. BLA degrades the beta-lactam ring nitrocefin. which can be detected by a colour change from yellow to red, for example using a wavelength λ=482 nm (wavelengths of λ=486 nm and λ=480 nm may also be used). […] (C) Activity of purified BLA-CaM chimeras in the presence (interrupted line) or absence (solid line) of saturating concentrations of M13 peptide. The insertion position is indicated by a number and a letter denoting deleted amino acid.
FIG. 6. Construction of B-lactamase double insert CaM chimeras (2CaM-BLA). (A) Activity analysis of a solution of 250 nM BLA-CaM 41G in the presence of 50 μM nitrocefin and in the presence (interrupted line) or absence (solid line) of 1 μM of M13 CaM-BP. […]
A range of insertion mutants of the enzyme β-lactamase (BLA) and calmodulin were constructed. β-lactamase degrades the beta-lactam ring in nitrocefin, which can be detected by a colour change from yellow to red (FIG. 5A). The β-lactamase structure (PDB: 3gmw) was analysed and a range of Calmodulin (BLA-CaM) chimeras were designed. […] The activity of the wild type β-lactamase as well as the BLA-CaM chimeras was monitored in the presence or absence of CaM-BP (M13). […]

M13 CaM-BP [2] = assay: GDH-CaM chimera activity, PMS/DCPIP assay with or without CaM-BP; assay type: biochemical; details: 10 nM chimera, presence vs absence of 1 μM M13 CaM-BP
Description: FIG. 11. Construction of a glucose dehydrogenase (GDH) AND gate biosensor. (A) GDH-CaM 48N activation by CaM-BP. activity analysis of a solution of 10 nM GDH-CaM 48N in the presence of 0.6 mM PMS as electron mediator and 60 μM DCPIP reporter dye in the presence of absence of 1 μM of M13 CaM-BP. (B) GDH-CaM 212N activation by CaM-BP. activity analysis of a solution of 10 nM GDH-CaM 212N in the presence of 0.6 mM PMS as electron mediator and 60 μM DCPIP reporter dye in the presence of absence of 1 μM of M13 CaM-BP. (C) GDH-CaM 48N_212N activation by CaM-BP. activity analysis of a solution of 10 nM GDH-CaM 48N_212N in the presence of 0.6 mM PMS as electron mediator and 60 μM DCPIP reporter dye in the presence of absence of 1 μM of M13 CaM-BP.
A range of insertion mutants of the enzyme glucose dehydrogenase (GDH) and calmodulin were constructed. […] The activity of GDH was monitored using 5-methylphenazinium methyl sulfate (PMS) as an electron mediator and 2,6-dichlorophenolindophenol (DCPIP) as a reporter dye, which upon reduction changes from blue to colourless. The GDH structure (PDB: 1c9u) was analysed and a library of CaM domain insertions was generated. […]
E.coli and purified to homogeneity. […] The activity of the wild type GDH as well as the GDH-CaM chimeras was monitored in the presence or absence of CaM-BP (M13). […]

For “BLA-CaM 41G_197E: β-lactamase with calmodulin insertions at positions 41 and 197”, the “activity retained compared to the wild type enzyme” value (M13 CaM-BP [1]; 10 nM enzyme, saturating M13 CaM-BP) was “about 25%” and the dynamic range (M13 CaM-BP [1]; 50 μM nitrocefin, presence vs absence of M13 CaM-BP) was “over 7000 fold”.

In the case of “GDH-CaM 48N_212N: Glucose dehydrogenase with calmodulin insertions at positions 48 and 212”, the dynamic range (M13 CaM-BP [2]) is reported as “over 20 fold”.

Reference: patent US20250075249A1, “AND-GATE ALLOSTERIC PROTEIN-BASED SWITCHES” (QUEENSLAND UNIVERSITY OF TECHNOLOGY, priority 2022, published 2025)
